Measurements published in US20240382629A1, “HETEROBIVALENT AND HOMOBIVALENT AGENTS TARGETING FIBROBLAST ACTIVATION PROTEIN ALPHA AND/OR PROSTATE-SPECIFIC MEMBRANE ANTIGEN” (The Johns Hopkins University, priority 2021, published 2024).
Read-outs that look alike come from different tables or passages of the source.

Legend:
FAP = FAP (Homo sapiens (Human), UniProt Q12884); test: FAP inhibition assay (recombinant enzyme, Z-Gly-Pro-AMC substrate); format: biochemical
Experimental: (§1) PSMA binding affinities of the compounds were determined using a competitive inhibition assay as previously reported. […] FAP, prolyl endopeptidase (PREP), and […] (DPPIV) inhibition assays: Recombinant enzymes (FAP, PREP, DPPIV) were purchased from R&D Systems (Minneapolis, MN). […] Z-Gly-Pro-AMC was used as a substrate for FAP and PREP. H-Gly-Pro-AMC was used as a substrate for DPPIV. The recombinant enzyme (0.4 μg/mL) was incubated with varying amounts of the test articles in the presence of the designated substrate (80 μM) for 10 min at room temperature. Fluorescence intensity was measured with 380 nm excitation and 460 nm emission using the Cytation 5 Cell Imaging Multi-Mode Reader (BioTek, Winooski, VT). IC50 and Ki values were obtained using a sigmoidal dose-response function.

FAP+ HT-1080 tumors = test: Small animal PET/CT of ^68Ga-labeled SB-FAP-01 in FAP+ HT-1080 and wild type tumors; format: in vivo; conditions: 60 minutes after intravenous administration
Experimental: Small animal PET/CT imaging was performed at 60 minutes after intravenous administration to this mirroring experimental model; and […]

PSMA = PSMA (Homo sapiens (Human), UniProt Q04609); test: PSMA competitive inhibition assay (NAAG substrate, LNCaP cell lysate); format: biochemical
Experimental: as §1

DPPIV = DPPIV (Homo sapiens (Human), UniProt P27487); test: DPPIV inhibition assay (recombinant enzyme, H-Gly-Pro-AMC substrate); format: biochemical; conditions: Table 4; read-out: DPPIV IC50
Experimental: as §1

PREP = PREP (Homo sapiens (Human), UniProt P48147); test: PREP inhibition assay (recombinant enzyme, Z-Gly-Pro-AMC substrate); format: biochemical; conditions: Table 4
Experimental: as §1

[1] = PET imaging and biodistribution in SK-MEL-24 tumor-bearing mice; format: in vivo, mouse; conditions: mouse, intravenous, SK-MEL-24 in NSG mice, 20 μCi; for tissue uptake at 1 h: n=3
Experimental: (§2) Cell uptake assays, flow cytometry, and IHC were performed as described previously. Banerjee et al., 2019; Nimmagadda et al., 2018. PET imaging and biodistribution Sequential PET imaging and biodistribution studies were conducted to quantify and validate PET imaging data. Briefly, tumor-bearing mice were administrated approximately 7.4 MBq of radiotracer in 150 μL saline via tail-vein injection. They were randomized into the indicated groups of 3-4 mice before radiotracer injection.
(§3) In Experiment 2, SK-MEL-24 tumor-bearing mice (n=3-4) were investigated.
(§4) Dose: 20 μCi, n=3 at 1 h and n=4 at 2 and 4 h per group, Tumor model: SK-MEL-24 in NSG mice

SK-MEL-24 tumor = test: as above; format: in vivo, mouse; conditions: SK-MEL-24 in NSG mice, 20 μCi, in %ID/g
Experimental: as §2, §3, §4

FAP, sequence (Q12884 whole entry): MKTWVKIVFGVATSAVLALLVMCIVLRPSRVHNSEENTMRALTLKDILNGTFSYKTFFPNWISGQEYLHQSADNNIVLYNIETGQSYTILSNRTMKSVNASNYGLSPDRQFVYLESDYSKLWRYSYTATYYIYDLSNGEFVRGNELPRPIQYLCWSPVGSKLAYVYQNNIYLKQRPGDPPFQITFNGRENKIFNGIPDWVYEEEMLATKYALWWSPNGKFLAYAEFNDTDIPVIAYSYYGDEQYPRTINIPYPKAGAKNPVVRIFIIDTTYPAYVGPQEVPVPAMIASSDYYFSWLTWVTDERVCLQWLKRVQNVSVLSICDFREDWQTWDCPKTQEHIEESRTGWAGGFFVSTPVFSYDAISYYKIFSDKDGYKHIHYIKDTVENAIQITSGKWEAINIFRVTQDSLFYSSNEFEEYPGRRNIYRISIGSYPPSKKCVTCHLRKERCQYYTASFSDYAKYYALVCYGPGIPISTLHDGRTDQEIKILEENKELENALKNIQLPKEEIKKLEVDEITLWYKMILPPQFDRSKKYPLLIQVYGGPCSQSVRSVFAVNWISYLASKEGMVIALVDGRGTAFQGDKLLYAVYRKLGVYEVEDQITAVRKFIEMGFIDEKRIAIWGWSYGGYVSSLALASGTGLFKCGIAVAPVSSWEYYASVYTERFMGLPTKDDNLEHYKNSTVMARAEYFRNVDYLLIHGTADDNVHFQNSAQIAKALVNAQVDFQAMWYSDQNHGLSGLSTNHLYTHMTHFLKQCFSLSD
PSMA, sequence (Q04609 whole entry): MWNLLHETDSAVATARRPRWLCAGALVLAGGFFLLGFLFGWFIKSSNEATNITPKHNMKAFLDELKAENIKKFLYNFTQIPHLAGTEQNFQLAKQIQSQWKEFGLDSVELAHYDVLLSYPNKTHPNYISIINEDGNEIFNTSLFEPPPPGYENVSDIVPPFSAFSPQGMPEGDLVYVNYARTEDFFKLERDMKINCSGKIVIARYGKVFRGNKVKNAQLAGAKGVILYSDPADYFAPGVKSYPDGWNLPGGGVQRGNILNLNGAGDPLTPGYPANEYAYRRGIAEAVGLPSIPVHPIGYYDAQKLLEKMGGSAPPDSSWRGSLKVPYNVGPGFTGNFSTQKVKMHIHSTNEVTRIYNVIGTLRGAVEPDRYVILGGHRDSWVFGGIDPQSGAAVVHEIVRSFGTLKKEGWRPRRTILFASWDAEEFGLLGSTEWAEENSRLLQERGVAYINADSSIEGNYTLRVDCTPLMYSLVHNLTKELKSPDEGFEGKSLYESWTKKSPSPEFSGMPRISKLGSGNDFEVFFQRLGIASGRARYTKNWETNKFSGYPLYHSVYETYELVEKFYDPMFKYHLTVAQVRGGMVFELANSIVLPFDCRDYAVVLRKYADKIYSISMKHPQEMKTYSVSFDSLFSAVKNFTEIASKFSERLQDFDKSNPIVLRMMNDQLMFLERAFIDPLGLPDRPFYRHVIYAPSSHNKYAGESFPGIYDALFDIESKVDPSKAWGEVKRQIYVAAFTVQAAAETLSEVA
PREP, sequence (P48147 whole entry): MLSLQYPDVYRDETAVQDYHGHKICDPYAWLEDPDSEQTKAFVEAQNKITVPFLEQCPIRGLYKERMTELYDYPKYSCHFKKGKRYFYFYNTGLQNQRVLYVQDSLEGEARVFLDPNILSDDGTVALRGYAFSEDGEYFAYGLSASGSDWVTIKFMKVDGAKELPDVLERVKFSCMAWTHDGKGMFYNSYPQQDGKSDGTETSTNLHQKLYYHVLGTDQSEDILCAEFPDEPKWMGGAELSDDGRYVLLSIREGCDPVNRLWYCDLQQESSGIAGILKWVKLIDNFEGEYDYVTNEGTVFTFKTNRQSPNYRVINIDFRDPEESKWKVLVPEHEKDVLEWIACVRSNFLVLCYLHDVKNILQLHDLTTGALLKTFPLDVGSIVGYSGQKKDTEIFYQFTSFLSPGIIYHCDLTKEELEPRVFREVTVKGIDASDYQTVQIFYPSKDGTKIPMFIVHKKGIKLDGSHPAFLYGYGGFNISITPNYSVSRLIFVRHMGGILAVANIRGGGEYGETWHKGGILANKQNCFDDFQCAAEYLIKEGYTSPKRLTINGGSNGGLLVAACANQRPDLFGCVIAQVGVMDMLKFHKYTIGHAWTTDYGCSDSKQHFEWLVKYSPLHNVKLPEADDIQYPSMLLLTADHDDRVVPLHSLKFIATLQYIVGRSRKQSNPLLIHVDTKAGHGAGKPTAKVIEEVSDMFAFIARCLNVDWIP
DPPIV, sequence (P27487 whole entry): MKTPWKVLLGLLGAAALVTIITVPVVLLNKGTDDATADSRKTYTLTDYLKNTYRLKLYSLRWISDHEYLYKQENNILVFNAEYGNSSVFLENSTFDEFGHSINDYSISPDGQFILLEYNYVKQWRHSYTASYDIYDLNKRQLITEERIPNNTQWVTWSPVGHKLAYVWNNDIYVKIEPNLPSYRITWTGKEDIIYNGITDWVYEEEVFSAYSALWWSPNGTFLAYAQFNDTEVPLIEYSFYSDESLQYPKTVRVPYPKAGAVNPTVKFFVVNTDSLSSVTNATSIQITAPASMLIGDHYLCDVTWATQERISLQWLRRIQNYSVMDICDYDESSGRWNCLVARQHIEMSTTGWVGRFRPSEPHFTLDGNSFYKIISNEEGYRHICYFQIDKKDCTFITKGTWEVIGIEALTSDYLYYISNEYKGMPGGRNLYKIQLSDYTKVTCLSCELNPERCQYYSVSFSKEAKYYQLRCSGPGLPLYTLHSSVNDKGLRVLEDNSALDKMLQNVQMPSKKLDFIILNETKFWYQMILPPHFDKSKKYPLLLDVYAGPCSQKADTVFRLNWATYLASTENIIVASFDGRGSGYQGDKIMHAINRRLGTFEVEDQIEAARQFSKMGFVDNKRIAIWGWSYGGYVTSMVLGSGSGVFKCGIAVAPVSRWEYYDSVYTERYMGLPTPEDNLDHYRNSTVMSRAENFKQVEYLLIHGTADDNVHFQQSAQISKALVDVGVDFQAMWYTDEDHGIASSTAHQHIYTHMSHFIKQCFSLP

## N#C[C@@H]1CCCN1C(=O)CNC(=O)c1ccnc2ccc(OCCCNC(=O)CCc3cn(CCOCCOCCOCCC(=O)N[C@@H](CCCCNC(=O)CN4CCN(CC(=O)O)CCN(CC(=O)O)CCN(CC(=O)O)CC4)C(=O)NCCCCC(=O)N(CCCC[C@H](NC(=O)N[C@@H](CCC(=O)O)C(=O)O)C(=O)O)Cc4ccc(Br)cc4)nn3)cc12 [SB-FAP-01, (14S,27S,31S)-22-(4-bromobenzyl)-1-(4-(3-((3-((4-((2-((S)-2-cyanopyrrolidin-1-yl)-2-oxoethyl)carbamoyl)quinolin-6-yl)oxy)propyl)amino)-3-oxopropyl)-1H-1,2,3-triazol-1-yl)-12,15,21,29-tetraoxo-14-(4-(2-(4,7,10-tris(carboxymethyl)-1,4,7,10-tetraazacyclododecan-1-yl)acetamido)butyl)-3,6,9-trioxa-13,16,22,28,30-pentaazatritriacontane-27,31,33-tricarboxylic acid]
FAP; 95% CI, read-out: FAP Binding affinity Ki (95% CI)
  Ki: 0.25 to 0.51 nM
FAP; Table 4
  IC50: 1.79 nM
FAP; Table 4, read-out: FAP Ki
  Ki: 0.36 nM
FAP; read-out: FAP Binding affinity Ki
  Ki: 0.36 nM
FAP+ HT-1080 tumors
  PET/CT tumor imaging: able to image tumors derived from FAP+ HT-1080 human fibrosis cells engineered to overexpressed FAP, but not those which are not
PSMA; 95% CI, read-out: PSMA Binding affinity Ki (95% CI)
  Ki: 7.3 to 37.9 nM
PSMA; Table 4
  IC50: 83.2 nM
PSMA; Table 4, read-out: PSMA Ki
  Ki: 16.6 nM
PSMA; read-out: PSMA Binding affinity Ki
  Ki: 16.6 nM
DPPIV
  IC50: 16900 nM
PREP
  IC50: 350 nM

## N#C[C@@H]1CCCN1C(=O)CNC(=O)c1ccnc2ccc(OCCCNC(=O)CCc3cn(CCOCCOCCOCCOCCOCCOCCC(=O)N[C@@H](CCCCNC(=O)CN4CCN(CC(=O)O)CCN(CC(=O)O)CC4)C(=O)NCCCCC(=O)N(CCCC[C@H](NC(=O)N[C@@H](CCC(=O)O)C(=O)O)C(=O)O)Cc4ccc(Br)cc4)nn3)cc12
[1]; bladder, read-out: Biodistribution: Bladder
  tissue uptake at 1 h: 3.53 ± 0.52 %ID/g
[1]; lacrimal gland, read-out: Biodistribution: Lac gl
  tissue uptake at 1 h: 9.2 ± 1.74 %ID/g
[1]; lacrimal gland, 2 h, n=4, read-out: Biodistribution: Lac gl
  tissue uptake at 2 h: 7 ± 2.22 %ID/g
[1]; lacrimal gland, n=4, read-out: Biodistribution: Lac gl
  tissue uptake at 4 h: 3.01 ± 1.94 %ID/g
[1]; salivary gland, read-out: Biodistribution: Sal gl
  tissue uptake at 1 h: 12.6 ± 2.46 %ID/g
[1]; salivary gland, n=4, read-out: Biodistribution: Sal gl
  tissue uptake at 4 h: 4.47 ± 0.89 %ID/g
[1]; small intestine, n=4, read-out: Biodistribution: Sm in
  tissue uptake at 4 h: 3.54 ± 0.57 %ID/g
SK-MEL-24 tumor; 1 h, n=3
  Biodistribution: Blood: 9.73 ± 0.29
  Biodistribution: Bone: 6.00 ± 0.27
  Biodistribution: Fat: 0.80 ± 0.31
  Biodistribution: Heart: 4.36 ± 0.23
  Biodistribution: Kidney: 8.08 ± 1.48
  Biodistribution: Liver: 5.30 ± 0.77
  Biodistribution: Lung: 7.30 ± 1.16
  Biodistribution: Muscle: 2.99 ± 0.18
  Biodistribution: Panc: 9.98 ± 0.99
  Biodistribution: SKMEL24: 13.25 ± 1.32
  Biodistribution: Sm in: 6.52 ± 0.85
  Biodistribution: Spleen: 3.06 ± 0.46
  Biodistribution: Stomach: 3.29 ± 1.04
SK-MEL-24 tumor; 2 h, n=4
  Biodistribution: Bladder: 4.76 ± 2.68
  Biodistribution: Blood: 6.36 ± 0.89
  Biodistribution: Bone: 5.61 ± 1.73
  Biodistribution: Fat: 0.91 ± 0.83
  Biodistribution: Heart: 2.92 ± 0.27
  Biodistribution: Kidney: 8.05 ± 1.27
  Biodistribution: Liver: 5.82 ± 0.72
  Biodistribution: Lung: 5.76 ± 0.57
  Biodistribution: Muscle: 2.24 ± 0.42
  Biodistribution: Panc: 6.66 ± 0.38
  Biodistribution: SKMEL24: 12.48 ± 1.03
  Biodistribution: Sm in: 5.44 ± 1.52
  Biodistribution: Spleen: 2.56 ± 0.40
  Biodistribution: Stomach: 3.20 ± 0.85
SK-MEL-24 tumor; 4 h, n=4
  Biodistribution: Bladder: 4.63 ± 1.72
  Biodistribution: Blood: 3.29 ± 0.07
  Biodistribution: Bone: 3.42 ± 0.92
  Biodistribution: Fat: 0.49 ± 0.14
  Biodistribution: Heart: 1.87 ± 0.26
  Biodistribution: Kidney: 7.26 ± 3.43
  Biodistribution: Liver: 6.03 ± 1.00
  Biodistribution: Lung: 4.55 ± 0.51
  Biodistribution: Muscle: 1.32 ± 0.22
  Biodistribution: Panc: 4.48 ± 0.88
  Biodistribution: SKMEL24: 9.82 ± 3.39
  Biodistribution: Spleen: 2.69 ± 0.44
  Biodistribution: Stomach: 2.23 ± 0.58
